Source: US20170240539A1, “Preparation and Use of Cyclic Sulfonamide Derivatives as PAR-1 Receptor Antagonists” (MERCK SHARP & DOHME CORP., priority 2014, published 2017)

target: T1, PAR-1 receptor (Homo sapiens, UniProt P25116); experiment: PAR-1 FLIPR Assay; format: cell-based; details: HEK 293 cells, FLIPR calcium-5 dye; inhibition of signal from PAR1 selective receptor-activating peptide at 80% activation concentration (1.4-2.0 uM); compound incubated 30 minutes at 25 degrees
T1 construct: endogenous in cells; host or cells: HEK 293
T1 sequence (P25116 22-425): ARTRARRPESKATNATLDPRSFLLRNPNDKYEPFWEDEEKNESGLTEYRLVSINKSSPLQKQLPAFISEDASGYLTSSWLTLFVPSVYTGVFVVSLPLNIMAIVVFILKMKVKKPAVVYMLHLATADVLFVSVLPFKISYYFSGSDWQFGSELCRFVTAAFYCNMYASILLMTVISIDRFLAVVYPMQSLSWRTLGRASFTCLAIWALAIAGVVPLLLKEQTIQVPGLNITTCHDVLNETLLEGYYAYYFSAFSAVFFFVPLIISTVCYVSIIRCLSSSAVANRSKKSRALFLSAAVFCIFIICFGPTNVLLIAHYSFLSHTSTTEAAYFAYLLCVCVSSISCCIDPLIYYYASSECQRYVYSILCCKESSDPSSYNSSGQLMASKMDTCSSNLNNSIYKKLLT
Method: The following assay was used to determine the ability of the inventive compounds to inhibit the PAR-1 receptor.
HEK 293 Cells are grown in media containing DMEM, 10% FBS pen/strep/L-Glutamine and non-essential amino acids. The cells are plated in 384-well PDL coated plates at 12000 cells/well and incubated overnight at 37° C./5% CO2. Media is then removed from the cells, which are then incubated with buffer (Hank's containing HEPES and Chaps) containing FLIPR calcium-5 dye, made with buffer containing probenecid, for 60 minutes at 37° C. Varying concentrations of compound in a final concentration of 5% DMSO are then added to the cells and incubated at 25 degrees for 30 minutes. The plates are then added to a FLIPR Tetra cellular screening system and the device adds a concentration of a PAR1 selective receptor-activating peptide with the sequence Ala-parafluoroPhe-Arg-Cha-Cit-Tyr-NH2 (SEQ ID NO: 3) (prepared in water) at a concentration equal to the effective concentration that achieves 80% activation of signaling on the day of the experiment. The range is from 1.4-2.0 uM peptide. The FLIPR reads at an excitation wavelength of 480 nm and an emission wavelength of 535 nm, and performs 60 scans over a 1-2 min reading time. The data are analyzed by taking the peak signal over a portion of the range of the 60 scans and dividing this signal by the minimum signal for that same range. The data are expressed as percent inhibition of the maximum divided by the minimum signal achieved at 80% activation produced by the PAR1 activating peptide on the test day.

SMILES	IC50
CC(=O)N1[C@H](C)[C@H]2[C@@H](/C=C/c3ccc(-c4ccccc4C#N)cn3)[C@H](C)C(F)(F)C[C@H]2S1(=O)=O [Example 4, 1-((3R,3aR,4S,5S,7aR)-6,6-difluoro-4-((E)-2-(5-(2-cyanophenyl)pyridin-2-yl)vinyl)-3,5-dimethyl-1,1-dioxidohexahydrobenzo[d]isothiazol-2(3H)-yl)ethanone]	483 nM
CC[C@@H]1CC[C@@H]2[C@H]([C@H]1/C=C/c1ccc(-c3ccccc3C#N)cn1)[C@@H](C)NS2(=O)=O [Example 10, 2-(6-((E)-2-((3R,3aR,4R,5R,7aR)-5-ethyl-3-methyl-1,1-dioxidooctahydrobenzo[d]isothiazol-4-yl)vinyl)pyridin-3-yl)benzonitrile]	0.97 nM
CC(=O)N1[C@H](C)[C@H]2[C@@H](/C=C/c3ccc(-c4ccccc4C#N)cn3)[C@@H](C)C(F)(F)C[C@H]2S1(=O)=O [Example 9, 1-((3R,3aR,4S,5R,7aR)-6,6-difluoro-4-((E)-2-(5-(2-cyanophenyl)pyridin-2-yl)vinyl)-3,5-dimethyl-1,1-dioxidohexahydrobenzo[d]isothiazol-2(3H)-yl)ethanone]	564 nM
CC[C@@H]1CC[C@@H]2[C@H]([C@H]1/C=C/c1ccc(-c3ccccc3C#N)cn1)[C@@H](C)N(C(=O)OC(C)(C)C)S2(=O)=O [Example 11, (3R,3aR,4R,5R,7aR)-tert-butyl 4-((E)-2-(5-(2-cyanophenyl)pyridin-2-yl)vinyl)-5-ethyl-3-methylhexahydrobenzo[d]isothiazole-2(3H)-carboxylate1,1-dioxide]	286 nM
COc1ncccc1-c1ccc(/C=C/[C@@H]2[C@H]3[C@@H](CC(F)(F)[C@H]2C)S(=O)(=O)N[C@@H]3C)nc1 [Example 1, (3R,3aR,4S,5S,7aR)-6,6-difluoro-4-((E)-2-(2′-methoxy-[3,3′-bipyridin]-6-yl)vinyl)-3,5-dimethyloctahydrobenzo[d]isothiazole 1,1-dioxide]	5.1 nM
COc1ncccc1-c1ccc(/C=C/[C@@H]2[C@@H]3[C@@H](C)NS(=O)(=O)[C@]3(C)CC(F)(F)[C@H]2C)nc1 [Example 12, (3R,3aR,4S,5S,7aR)-6,6-difluoro-4-((E)-2-(2′-methoxy-[3,3′-bipyridin]-6-yl)vinyl)-3,5,7a-trimethyloctahydrobenzo[d]isothiazole 1,1-dioxide]	4.2 nM
C[C@@H]1[C@H](/C=C/c2ccc(-c3ccccc3C#N)cn2)[C@H]2[C@@H](CC1(F)F)S(=O)(=O)N[C@@H]2C [Example 8, (3R,3aR,4S,5R,7aR)-4-((E)-2-(5-(2-cyanophenyl)pyridin-2-yl)vinyl)-6,6-difluoro-3,5-dimethyloctahydrobenzo[d]isothiazole-1,1-dioxide]	178 nM
C[C@H]1NS(=O)(=O)[C@@H]2CC(F)(F)[C@@H](C)[C@H](/C=C/c3ccc(-c4cccnc4C#N)cn3)[C@@H]21 [Example 2, (3R,3aR,4S,5S,7aR)-6,6-difluoro-4-((E)-2-(2′-cyano-[3,3′-bipyridin]-6-yl)vinyl)-3,5-dimethyloctahydrobenzo[d]isothiazole 1,1-dioxide]	55.8 nM
C[C@@H]1[C@H]2[C@@H](/C=C/c3ccc(-c4cccc(F)c4)cn3)[C@H](C)C(F)(F)C[C@H]2S(=O)(=O)N1C(=O)OC(C)(C)C [Example 14, (3R,3aR,4S,5S,7aR)-tert-butyl 6,6-difluoro-4-((E)-2-(5-(3-fluorophenyl)pyridin-2-yl)vinyl)-3,5-dimethylhexahydrobenzo[d]isothiazole-2(3H)-carboxylate 1,1-dioxide]	383 nM
Cc1nc(/C=C/[C@@H]2[C@H]3[C@@H](CC(F)(F)[C@H]2C)S(=O)(=O)N[C@@H]3C)ccc1-c1cccnc1C#N [Example 7]	41 nM

Continued, values first:

IC50	SMILES
11.8 nM	C[C@H]1NS(=O)(=O)[C@]2(C)CC(F)(F)[C@@H](C)[C@H](/C=C/c3ccc(-c4ccccc4C#N)cn3)[C@H]12 [Example 16, (3R,3aR,4S,5S,7aR)-6,6-difluoro-4-((E)-2-(5-(2-cyanophenyl)pyridin-2-yl)vinyl)-3,5,7a-trimethyloctahydrobenzo[d]isothiazole 1,1-dioxide]
337 nM	COc1ncccc1-c1ccc(/C=C/[C@@H]2[C@@H]3[C@@H](C)NS(=O)(=O)[C@@]3(CC(N)=O)CC(F)(F)[C@H]2C)nc1 [Example 22, 2-((3R,3aR,4S,5S,7aS)-6,6-difluoro-4-((E)-2-(2′-methoxy-[3,3′-bipyridin]-6-yl)vinyl)-3,5-dimethyl-1,1-dioxidooctahydrobenzo[d]isothiazol-7a-yl)acetamide]
54 nM	COc1ncccc1-c1ccc(/C=C/[C@@H]2[C@@H]3[C@@H](C)N(C(=O)OC(C)(C)C)S(=O)(=O)[C@@]3(CC(N)=O)CC(F)(F)[C@H]2C)nc1 [Example 19, (3R,3aR,4S,5S,7aS)-tert-butyl 7a-(2-amino-2-oxoethyl)-6,6-difluoro-4-((E)-2-(2′-methoxy-[3,3′-bipyridin]-6-yl)vinyl)-3,5-dimethylhexahydrobenzo[d]isothiazole-2(3H)-carboxylate 1,1-dioxide]
13 nM	CC[C@@H]1CC[C@@H]2[C@H]([C@H]1/C=C/c1ccc(-c3ccccc3C#N)cn1)[C@@H](C)N(C)S2(=O)=O [Example 27, 2-(6-((E)-2-((3R,3aR,4R,5R,7aR)-5-ethyl-2,3-dimethyl-1,1-dioxidooctahydrobenzo[d]isothiazol-4-yl)vinyl)pyridin-3-yl)benzonitrile]
325 nM	CCOC(=O)N1[C@H](C)[C@H]2[C@@H](/C=C/c3ccc(-c4ccccc4C#N)cn3)[C@H](CC)CC[C@H]2S1(=O)=O [Example 28, (3R,3aR,4R,5R,7aR)-ethyl 4-((E)-2-(5-(2-cyanophenyl)pyridin-2-yl)vinyl)-5-ethyl-3-methylhexahydrobenzo[d]isothiazole-2(3H)-carboxylate 1,1-dioxide]
12 nM	C[C@H]1NS(=O)(=O)[C@]2(CC(=O)O)CC(F)(F)[C@@H](C)[C@H](/C=C/c3ccc(-c4ccccc4C#N)cn3)[C@H]12 [Example 25, 2-((3R,3aR,4S,5S,7aR)-4-((E)-2-(5-(2-cyanophenyl)pyridin-2-yl)vinyl)-6,6-difluoro-3,5-dimethyl-1,1-dioxidooctahydrobenzo[d]isothiazol-7a-yl)acetic acid]
110 nM	COc1ncccc1-c1ccc(/C=C/[C@@H]2[C@@H]3[C@@H](C)N(C(=O)OC(C)(C)C)S(=O)(=O)[C@]3(CC(N)=O)CC(F)(F)[C@H]2C)nc1 [Example 21]
5 nM	C[C@H]1NS(=O)(=O)[C@]2(CC(N)=O)CC(F)(F)[C@@H](C)[C@H](/C=C/c3ccc(-c4cccc(F)c4)cn3)[C@H]12 [Example 20, 2-((3R,3aR,4S,5S,7aR)-6,6-difluoro-4-((E)-2-(5-(3-fluorophenyl)pyridin-2-yl)vinyl)-3,5-dimethyl-1,1-dioxidooctahydrobenzo[d]isothiazol-7a-yl)acetamide]
3 nM	C[C@H]1NS(=O)(=O)[C@]2(CC(N)=O)CC(F)(F)[C@@H](C)[C@H](/C=C/c3ccc(-c4ccccc4C#N)cn3)[C@H]12 [Example 23, 2-((3R,3aR,4S,5S,7aR)-4-((E)-2-(5-(2-cyanophenyl)pyridin-2-yl)vinyl)-6,6-difluoro-3,5-dimethyl-1,1-dioxidooctahydrobenzo[d]isothiazol-7a-yl)acetamide]
